ChEMBL document CHEMBL6177993, “De Novo 3-(Phenylcarbamoyl) Benzoate Analogues: Efficacy against Multidrug-Resistant S. aureus and Elucidation of the Biodistribution Profile” (J Med Chem, 2025)
≈ marks a conversion by molar mass, not a printed value. Calls of active or inactive are those of the source. No cut-off for these calls is given here.

Columns and labels:
Staphylococcus aureus [1] = assay: Inhibition of biofilm in Staphylococcus aureus ATCC 29213 at 2 times MIC measured after 12 hrs by crystal violet staining based analysis relative to control; type: functional
Staphylococcus aureus [2] = assay: Antibiofilm activity in Staphylococcus aureus ATCC 29213 assessed as disruption of preformed biofilm at 40 times MIC measured after 24 hrs by crystal violet staining based assay relative to control; type: functional
Staphylococcus aureus [3] = assay: Bactericidal activity against Staphylococcus aureus ATCC 29213 at 4 to 8 time MIC measured after 8 hrs by time-kill assay; type: functional, organism-based
Enterococcus faecalis = assay: Antibacterial activity against Enterococcus faecalis ATCC 35550 assessed as reduction in bacterial growth measured after 18 to 24 hrs by broth microdilution method; type: functional; conditions: time 18-24 hrs
Staphylococcus aureus [4] = assay: Bactericidal activity against Staphylococcus aureus ATCC 29213 at 4 to 8 time MIC measured within 60 mins by time-kill assay; type: functional, organism-based
[5] = Solubility of the compound in DMSO/DMF; type: physicochemical
Staphylococcus aureus [6] = assay: Antibacterial activity against Staphylococcus aureus ATCC 29213 infected in female BALB/c mouse skin infection model assessed as reduction of abscess in subcutaneous tissue at 10 times MIC pre-infected with bacteria followed by compound addition and measured after 24 hrs; type: functional, organism-based
Staphylococcus aureus [7] = assay: Antibacterial activity against vacomycin-resistant Staphylococcus aureus VRS 4 assessed as reduction in bacterial growth measured after 18 to 24 hrs by broth microdilution method; type: functional; conditions: time 18-24 hrs
Acinetobacter baumannii = assay: Antibacterial activity against Acinetobacter baumannii BAA 1605 assessed as reduction in bacterial growth measured after 18 to 24 hrs by broth microdilution method; type: functional; conditions: time 18-24 hrs
Staphylococcus aureus [8] = assay: Antibacterial activity against methicillin-resistant Staphylococcus aureus NRS 100 assessed as reduction in bacterial growth measured after 18 to 24 hrs by broth microdilution method; type: functional; conditions: time 18-24 hrs
Staphylococcus aureus [9] = assay: Antibacterial activity against methicillin-resistant Staphylococcus aureus NRS 186 assessed as reduction in bacterial growth measured after 18 to 24 hrs by broth microdilution method; type: functional; conditions: time 18-24 hrs
Pseudomonas aeruginosa = assay: Antibacterial activity against Pseudomonas aeruginosa ATCC 27853 assessed as reduction in bacterial growth measured after 18 to 24 hrs by broth microdilution method; type: functional; conditions: time 18-24 hrs
Cell membrane = assay: Disruption of cell membrane in Staphylococcus aureus ATCC 29213 assessed as increase in PI uptake at 10 times MIC measured after 8 mins by fluorescence based microplate reader analysis

O=C(O)c1cccc(C(=O)Nc2c(C(c3ccc(F)cc3)c3ccc(F)cc3)cc(Cl)cc2C(c2ccc(F)cc2)c2ccc(F)cc2)c1
inhibition (INH) (Staphylococcus aureus [1]): 95% | Activity (Staphylococcus aureus [2]): 31.47% | Activity (Staphylococcus aureus [3]): Active | MIC (Enterococcus faecalis): 1 µg/mL (≈ 1.47 µM) | Activity (Staphylococcus aureus [4]): Active | solubility [5]: 570 mg/mL (≈ 838000 µM) | Activity (Staphylococcus aureus [6]): Active | MIC (Staphylococcus aureus [7]): 2 µg/mL (≈ 2.94 µM) | MIC (Acinetobacter baumannii): > 64 µg/mL | MIC (Staphylococcus aureus [8]): 2 µg/mL (≈ 2.94 µM) | MIC (Staphylococcus aureus [9]): 2 µg/mL (≈ 2.94 µM) | MIC (Pseudomonas aeruginosa): > 64 µg/mL | Activity (Cell membrane): Active
